Activity calls are given as the source filed them. The calls are words filed in the database; no cut-off is given here.

In test [1] the test system is Reticulitermes flavipes. Put plainly: Termiticidal activity against Reticulitermes flavipes after 3 days by forced exposure test. The format is functional.
For test [2], the system named is Reticulitermes flavipes. Put plainly: Termiticidal activity against Reticulitermes flavipes assessed as mortality at 0.6 ug/g after 5 months by forced exposure test. The class given is functional.
The subject of test [3] is Reticulitermes flavipes. Description: Termiticidal activity against Reticulitermes flavipes assessed as mortality at 0.6 ug/g after 10 months by forced exposure test. The class given is functional.
Test [4] has as its system Reticulitermes flavipes. Put plainly: Termiticidal activity against Reticulitermes flavipes after 7 days by forced exposure test. The class given is functional, organism-based.
In test [5] the test system is Reticulitermes flavipes. Description: Termiticidal activity against Reticulitermes flavipes assessed as mortality at 0.6 ug/g by forced exposure test. The format is functional.
The test system of test [6] is Reticulitermes flavipes. Put plainly: Termiticidal activity against Reticulitermes flavipes assessed as mortality after 4 days by forced exposure test. The format is functional.
Test [7] deals with Reticulitermes flavipes. Description: Termiticidal activity against Reticulitermes flavipes assessed as mortality at 0.06 ug/g after 7 days by forced exposure test. The class given is functional.
In test [8] the test system is Reticulitermes flavipes. Put plainly: Termiticidal activity against Reticulitermes flavipes assessed as mortality at 0.6 ug/g after 3 days by forced exposure test. The format is functional.
Test [9] relates to Reticulitermes flavipes. Put plainly: Termiticidal activity against Reticulitermes flavipes assessed as mortality at 6.9 ug/g after 7 days by forced exposure test. The class given is functional.
Test [10] concerns Reticulitermes flavipes. Put plainly: Termiticidal activity against Reticulitermes flavipes at 0.69 ug/g after 7 days by forced exposure test. The format is functional, organism-based.

`Cc1c(COC(=O)[C@@H]2[C@H](/C=C(\Cl)C(F)(F)F)C2(C)C)cccc1-c1ccccc1` [BIFENTHRIN] came in with an LC50 in the test on Reticulitermes flavipes [1] of 0.074 µg/g. The compound also had an LC95 in the test on Reticulitermes flavipes [1] of 0.724 µg/g. Further, the mortality with Reticulitermes flavipes [2] is 63%; with Reticulitermes flavipes [3] it was 73.9%; in the test on Reticulitermes flavipes [5], 100%. Also, in the test on Reticulitermes flavipes [4], the outcome was inactive.

As to `N#Cc1nn(-c2c(Cl)cc(C(F)(F)F)cc2Cl)c(N)c1[S+]([O-])C(F)(F)F` (configuration not stated) [FIPRONIL], the LC50 with Reticulitermes flavipes [6] is 0.49 µg/g. Also, the mortality in the test with Reticulitermes flavipes [7] and in the test on Reticulitermes flavipes [8] was 100% throughout.

Take `O=[N+]([O-])/N=C1\NCCN1Cc1ccc(Cl)nc1` [IMIDACLOPRID]: the result in the test with Reticulitermes flavipes [1] and with Reticulitermes flavipes [10] was inactive. The mortality in the test on Reticulitermes flavipes [9] is recorded as 80%.

Usually mortality stands for the percentage killed.
